This is an account of results in US4138590A, “Prostaglandin derivatives” (American Home Products Corporation, priority 1977, dated 1979).

One assay has as its system Human blood platelets. Nature of the assay: Blood Platelet Aggregation (ADP induced, modification of Born and Cross). To be noted: human PRP, ADP 2-4 μM. In kind it is cell-based. How it is done:
Reference: Modification of Born, G.V.R., and Cross, M. J., J. Physiol., 168, 178-195 (1963).
Test Object: Human blood platelets.
Procedure: Platelet aggregation is the initial step in thrombus formation and it is considered that compounds which prevent aggregation or reduce platelet adhesiveness may inhibit the initiation of the arteriosclerotic process. The effect of drugs on aggregation is measured in platelet rich plasma (PRP) containing adenosine diphosphate (ADP) which markedly increases aggregation in vitro and may be a physiological agent for doing so in vivo.
Human blood is collected from fasted normal blood donors in siliconized 50 ml. Vacutainers that contain 3.8% sodium citrate. Centrifugation at 500 g. for 3 minutes at 5° C. separates the red blood cells from the PRP. The supernatant PRP is pipetted off and the remainder is centrifuged at 1000 g. for 10 minutes at 25° C. to obtain platelet poor plasma for standarization of the automated Payton aggregometer. In the running of the platelet aggregation test a cell containing 1.0 ml. of PRP is stirred at 1,100 rpm and the test compound is added in 0.2 ml. of buffered saline to give an initial concentration of 5 × 10^-3 M, or 5 × 10^-4 M. After 3 minutes, a concentration of ADP predetermined to yield marked platelet aggregation (2 to 4 μM) is added in 0.1 ml. of buffered saline. The curve of light transmission at 610 mμ is followed for 6 minutes. Compounds found to be active at the initial concentration are run at lower concentrations.
Standard Compound: 2-4 μM ADP-Reference Compound.

Assay [1] has as its system bronchoconstricting effects of a standard dose of acetylcholine. Briefly: Evaluation of Bronchodilator Activity (aerosol inhalation, method of Rosenthale et al.). In kind it is in vivo. As to conditions: guinea pig, acetylcholine i.v. dose producing ca. 30% bronchoconstriction. The source says: In using the compounds of the invention to produce bronchodilating effects in warm-blooded animals, they may be administered in a variety of dosage forms: oral, injectable, and aerosol inhalation. Aerosol inhalation is a preferred method because of its rapid onset of action, great potency, and specificity of action. The particular dosage to obtain the bronchodilating effect will vary with the particular compound employed, the particular animal involved, and the degree of bronchodilation desired. In the guinea pig, by aerosol inhalation, the dose to produce bronchodilation is from about 0.15 micrograms to about 25 micrograms, and preferably from about 0.15 to about 15 micrograms. The bronchodilation produced upon aerosol inhalation can be observed by the method of Rosenthale et al., J. Pharmacol. Exp. Ther., 178, 541 (1971). Using this procedure the following results were obtained:
*The dose (i.v.) of acetylcholine which produces a ca. 30%

As usually defined, the inhibition is the change of the read-out against control, counted positive when it falls. A high value points to strong suppression. `CCCCC[C@H](O)/C=C/[C@H]1C(=O)C=C(c2ccccc2)[C@@H]1C/C=C\CCCC(=O)O` [7-{2β-[(3S)-3-Hydroxy-trans-1-Octenyl]-3-Oxo-5-Phenyl-4-Cyclopenten-1α-yl}-cis-5-Heptenoic Acid] returned an inhibition at 18 µM in the assay on Human blood platelets (concentration 1.8 × 10^-5 M) of 22%. For the compound `C#CC1=CC(=O)[C@H](/C=C/[C@@H](O)CCCCC)[C@H]1C/C=C\CCCC(=O)O` [7-{5β-[(3S)-3-Hydroxy-trans-1-Octenyl]-2-Ethynyl-4-Oxo-2-Cyclopenten-1α-yl}-cis-5-Heptenoic Acid], the inhibition at 22 µM in the assay with Human blood platelets (concentration 2.2 × 10^-5 M) worked out at 36%. Take `CCCCC[C@H](O)/C=C/[C@H]1C(=O)C=C(C)[C@@H]1C/C=C\CCCC(=O)O` [7-{5β-[(3S)-3-Hydroxy-trans-1-Octenyl]-2-Methyl-4-Oxo-2-Cyclopenten-1α-yl}-cis-5-Heptenoic Acid]: the entries for the “% Inhibition of the Bronchoconstricting effects of a standard dose of acetylcholine” value in assay [1] (dose 1.5 μg) and in assay [1] (dose 15 μg) were 36% and 78%, respectively. This compound also came in with an inhibition at 0.0057 µM in the assay on Human blood platelets (concentration 5.7 × 10^-9 M) of 56%.
